Among the test systems are SN12C renal; HCT-15 colon; T-47D breast; MDA-MB-435; UO-31 renal; SNB-75 CNS; OVCAR-3 ovarian; A549 NSCLC; SK-OV-3 ovarian; NCI-H460 lung.
What all share (assay): NCI anticancer screen, dose series, 48 h

The values that follow come from PubChem BioAssay (NCI).

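Where inhibition never reached the appropriate level, the endpoint shown equals the highest concentration tested. Otherwise, values were interpolated linearly from a five-concentration, 48-hour dose response in 96-well plates. GI50 marks 50% less growth. The concentration for full growth arrest is given as TGI.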

For the molecule `Nc1nc(N)c2c(Cl)c(CNc3ccc(Cl)c(Cl)c3)ccc2n1`, the TGI is 23.3 µM in the assay on SN12C renal; 13.6 µM with HCT-15 colon; 23.3 µM in the assay with T-47D breast; 17.5 µM in the assay on MDA-MB-435; 10.3 µM in the assay with UO-31 renal; 18.4 µM with SNB-75 CNS. Besides, the TGI is 11 µM in the assay on OVCAR-3 ovarian, 14.5 µM in the assay on A549 NSCLC, 16.1 µM in the assay with SK-OV-3 ovarian and 11.4 µM with NCI-H460 lung.

As for `CCN(CC)CCOc1ccc2c(-c3ccccc3)c(-c3ccc(OC)cc3)c(=O)oc2c1`, the GI50 is 10.8 µM with SN12C renal; 2.64 µM in the assay with HCT-15 colon; 3.57 µM with T-47D breast; 3.3 µM in the assay on MDA-MB-435; 1.65 µM in the assay with UO-31 renal; 3.69 µM in the assay with SNB-75 CNS. Besides, the GI50 was 4.32 µM in the assay with OVCAR-3 ovarian, 7.76 µM in the assay on A549 NSCLC, 11 µM with SK-OV-3 ovarian and 2.5 µM with NCI-H460 lung. Also, the TGI in the assay with SN12C renal was 23.9 µM; in the assay with HCT-15 colon, 8.18 µM; in the assay on T-47D breast it was 15.9 µM; in the assay with MDA-MB-435, 10.6 µM; in the assay on UO-31 renal it was 5.55 µM; with SNB-75 CNS it was 16.7 µM. Also, the TGI with OVCAR-3 ovarian was 16.5 µM; in the assay on A549 NSCLC, 22 µM; in the assay on SK-OV-3 ovarian it was 23 µM; in the assay on NCI-H460 lung it was 6.06 µM.

In the case of `CCN(CC)Cc1cc(Nc2ccnc3ccc(OC)cc23)ccc1O`, the GI50 in the assay with SN12C renal is 3.57 µM; in the assay on HCT-15 colon, 3.56 µM; in the assay with T-47D breast it was 5.69 µM; in the assay with MDA-MB-435, 3.08 µM; in the assay on UO-31 renal, 1.84 µM; in the assay with SNB-75 CNS, 4.88 µM. Also, the GI50 in the assay on OVCAR-3 ovarian is 3.2 µM; in the assay on A549 NSCLC it was 4.37 µM; in the assay with SK-OV-3 ovarian, 7.15 µM; with NCI-H460 lung it was 3.28 µM. Moreover, the TGI in the assay with SN12C renal is 20.6 µM; with HCT-15 colon it was 34 µM; in the assay with T-47D breast, 44.7 µM; in the assay with MDA-MB-435 it was 12.3 µM; in the assay with UO-31 renal it was 5.96 µM; in the assay on SNB-75 CNS, 18.8 µM. For the same molecule, the TGI in the assay with OVCAR-3 ovarian was 20.4 µM; in the assay with A549 NSCLC it was 18.1 µM; in the assay with SK-OV-3 ovarian it was 34.5 µM; in the assay with NCI-H460 lung, 10.4 µM.

In the case of `C=CCc1cc(O)ccc1O`, the GI50 with SN12C renal is 11 µM; in the assay with HCT-15 colon, 36 µM; in the assay on T-47D breast, 16.9 µM; in the assay with MDA-MB-435 it was 19.9 µM; in the assay on UO-31 renal, 11 µM; in the assay on SNB-75 CNS, 5.74 µM. The GI50 with OVCAR-3 ovarian was 7.64 µM; in the assay with A549 NSCLC, > 100 µM; in the assay with SK-OV-3 ovarian, 94.8 µM; in the assay with NCI-H460 lung, 46.8 µM. For the same molecule, the TGI in the assay on SN12C renal was 49.4 µM; with HCT-15 colon it was > 100 µM; in the assay on T-47D breast, 84.4 µM; in the assay on MDA-MB-435 it was 57.1 µM; with UO-31 renal, 24.4 µM; in the assay with SNB-75 CNS, > 100 µM. Moreover, the TGI in the assay on OVCAR-3 ovarian was 20.7 µM; with A549 NSCLC, > 100 µM; in the assay with SK-OV-3 ovarian, > 100 µM; in the assay with NCI-H460 lung, > 100 µM.

In the case of `N#CC(Cl)CS(=O)(=O)c1ccccc1` (stereo not given), the TGI stood at 31.7 µM in the assay on SN12C renal; 5.38 µM in the assay with HCT-15 colon; 6.06 µM in the assay on T-47D breast; 32.1 µM in the assay with MDA-MB-435; 33.5 µM in the assay with UO-31 renal; 37.1 µM in the assay with SNB-75 CNS. The TGI in the assay with OVCAR-3 ovarian worked out at 7.17 µM; in the assay on A549 NSCLC, 41.7 µM; in the assay with SK-OV-3 ovarian, 33.6 µM; in the assay on NCI-H460 lung, 38.8 µM.

As to `N#Cc1c(-c2ccccc2)nc(SCC(O)CN2CCOCC2)nc1N1CCOCC1` (stereo not given), the GI50 is 18.9 µM in the assay with SN12C renal; 9.16 µM with HCT-15 colon; 1.33 µM in the assay with T-47D breast; 19.6 µM in the assay on MDA-MB-435; 1.54 µM with UO-31 renal; 1.36 µM with SNB-75 CNS. Also, the GI50 with OVCAR-3 ovarian is 15.4 µM; in the assay on A549 NSCLC, 6.43 µM; in the assay with SK-OV-3 ovarian, 1.87 µM; in the assay on NCI-H460 lung, 7.03 µM. For the same molecule, the TGI was > 100 µM in the assay on SN12C renal; > 100 µM with HCT-15 colon; 6.03 µM with T-47D breast; > 100 µM in the assay with MDA-MB-435; > 100 µM in the assay with UO-31 renal; 11.1 µM with SNB-75 CNS. For the same molecule, the TGI in the assay with OVCAR-3 ovarian was > 100 µM; with A549 NSCLC, > 100 µM; with SK-OV-3 ovarian it was 12 µM; in the assay with NCI-H460 lung it was > 100 µM.

Regarding `O=C(Nc1nc2ccc(OC(F)(F)F)cc2s1)c1ccc(F)cc1`, the GI50 in the assay with SN12C renal is 2.58 µM; with HCT-15 colon, 3.04 µM; in the assay with T-47D breast, 2.64 µM; in the assay with MDA-MB-435 it was 2.98 µM; with UO-31 renal, 3.44 µM; in the assay on SNB-75 CNS, 3.45 µM. The GI50 in the assay on OVCAR-3 ovarian is 2.22 µM; in the assay with A549 NSCLC, 3.51 µM; in the assay with SK-OV-3 ovarian it was 2.6 µM; in the assay on NCI-H460 lung, 3.02 µM. Also, the TGI with SN12C renal was 8.21 µM; in the assay on HCT-15 colon, 10.5 µM; in the assay with T-47D breast, 9.78 µM; with MDA-MB-435, > 100 µM; in the assay on UO-31 renal, > 100 µM; in the assay on SNB-75 CNS, 53.9 µM. The TGI was 7.2 µM in the assay with OVCAR-3 ovarian, > 100 µM in the assay on A549 NSCLC, 8.44 µM in the assay with SK-OV-3 ovarian and 20.7 µM with NCI-H460 lung.

As to `COc1ccc(/C=C/C(=O)C(=O)/C=C/c2ccc(OC)c(OC)c2)cc1OC`, the GI50 with SN12C renal was 3.06 µM; in the assay on HCT-15 colon, 0.769 µM; in the assay with T-47D breast, 2.26 µM; with MDA-MB-435 it was 1.16 µM; in the assay on UO-31 renal it was 1.63 µM; with SNB-75 CNS, 2.49 µM. Also, the GI50 in the assay on OVCAR-3 ovarian is 2.84 µM; with A549 NSCLC, > 100 µM; in the assay on SK-OV-3 ovarian, 36.4 µM; in the assay on NCI-H460 lung it was 3.06 µM. Also, the TGI in the assay with SN12C renal was 17.7 µM; in the assay on HCT-15 colon it was 6.18 µM; in the assay with T-47D breast, > 100 µM; with MDA-MB-435 it was 2.98 µM; in the assay with UO-31 renal it was 3.41 µM; in the assay with SNB-75 CNS, 33.9 µM. Further, the TGI was 9.9 µM in the assay with OVCAR-3 ovarian, > 100 µM in the assay on A549 NSCLC, > 100 µM in the assay with SK-OV-3 ovarian and 11.2 µM in the assay on NCI-H460 lung.
